Results taken from US12122761B2, “2-azaspiro[3.4]octane derivatives as M4 agonists” (NOVARTIS AG, priority 2019, dated 2024).

Assays:
[1] = target: T1, human cloned CHRM4 receptor (M4_CHO cells) (Homo sapiens, UniProt P08173); assay: CHRM4 Ca++ Flux Assay (agonist mode, FDSS 7000EX); format: cell-based; settings: for Emax: Percent Activity, read-out: M4 FDSS PA; for EC50: geometric mean if tested more than once, read-out: M4 FDSS EC50
T1 construct: expressed in transfected cells; host or cells: CHO-K1
T1 sequence (P08173 1-479): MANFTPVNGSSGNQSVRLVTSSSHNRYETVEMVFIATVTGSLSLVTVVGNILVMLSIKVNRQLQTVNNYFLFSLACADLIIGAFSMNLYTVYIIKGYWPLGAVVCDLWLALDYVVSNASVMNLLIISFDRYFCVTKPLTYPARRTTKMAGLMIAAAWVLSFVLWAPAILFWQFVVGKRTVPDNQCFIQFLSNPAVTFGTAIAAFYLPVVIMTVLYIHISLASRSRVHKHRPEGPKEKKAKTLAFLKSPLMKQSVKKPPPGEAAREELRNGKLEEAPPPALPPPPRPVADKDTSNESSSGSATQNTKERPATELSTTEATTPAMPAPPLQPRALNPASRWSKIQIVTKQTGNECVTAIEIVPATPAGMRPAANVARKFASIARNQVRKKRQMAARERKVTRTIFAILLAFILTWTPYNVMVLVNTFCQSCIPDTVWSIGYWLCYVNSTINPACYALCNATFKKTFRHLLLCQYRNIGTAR
How it was run: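 Agonist-mode response was expressed as percent of the Carbachol EC100 and fitted with four-parameter nonlinear regression over an 11-point triplicate dose series. Intracellular Ca++ was tracked for 3 min by fluorescent dye in CHO-K1 cells stably expressing human CHRM4. Cells were preincubated 60 min with 20 μM ATP in buffer containing 2.5 mM probenecid.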

[2] = target: T2, human cloned CHRM3 receptor (M3_CHO cells) (Homo sapiens, UniProt P20309); assay: CHRM3 Ca++ Flux Assay (agonist mode, FDSS 7000EX); format: cell-based; settings: for Emax: Percent Activity measured to EC100 of Carbachol, read-out: M3 FDSS PA; for EC50: agonist mode, geometric mean if tested more than once, read-out: M3 FDSS EC50
T2 construct: expressed in transfected cells; host or cells: CHO-K1
T2 sequence (P20309 whole entry): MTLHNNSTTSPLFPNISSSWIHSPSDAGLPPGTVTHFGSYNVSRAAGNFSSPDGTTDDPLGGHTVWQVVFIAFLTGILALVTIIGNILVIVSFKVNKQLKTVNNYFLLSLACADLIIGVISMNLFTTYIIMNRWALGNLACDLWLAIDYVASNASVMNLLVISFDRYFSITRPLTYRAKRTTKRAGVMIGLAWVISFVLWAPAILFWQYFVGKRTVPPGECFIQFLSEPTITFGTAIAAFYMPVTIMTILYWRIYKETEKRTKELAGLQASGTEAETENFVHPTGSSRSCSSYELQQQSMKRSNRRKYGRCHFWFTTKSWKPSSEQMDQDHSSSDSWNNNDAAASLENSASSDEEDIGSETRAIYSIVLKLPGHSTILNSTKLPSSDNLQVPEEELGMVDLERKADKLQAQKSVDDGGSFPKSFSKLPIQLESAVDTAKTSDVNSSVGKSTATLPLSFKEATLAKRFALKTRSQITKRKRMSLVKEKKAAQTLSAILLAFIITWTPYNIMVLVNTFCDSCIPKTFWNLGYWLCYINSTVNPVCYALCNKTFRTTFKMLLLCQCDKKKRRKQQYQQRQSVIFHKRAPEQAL
How it was run: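 CHO-K1 cells stably expressing human M3 or M5 receptor were dye-loaded for at least 1 h in HBSS with 20 mM HEPES and 2.5 mM probenecid, then given 11-point compound doses in triplicate.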

Compound | Emax [1] [%] | EC50 [1] [nM] | Emax [2] [%] | EC50 [2] [nM]
COc1ccccc1C1CCN([C@@H]2CCC3(C2)CN(c2cccnc2)C3)CC1 [Example 5K, (R)-6-(4-(2-methoxyphenyl)piperidin-1-yl)-2-(pyridin-3-yl)-2-azaspiro[3.4]octane] | 64 | 9 | 0 | > 25000
Cc1ccc(N2CC3(CC[C@@H](N4CCC(c5ccccc5O[C@@H]5CCOC5)CC4)C3)C2)cn1 [Example 5L, (R)-2-(6-methylpyridin-3-yl)-6-(4-(2-(((R)-tetrahydrofuran-3-yl)oxy)phenyl)piperidin-1-yl)-2-azaspiro[3.4]octane] | 61 | 29 | 0 | 11700
COc1ccccc1C1CCN([C@@H]2CCC3(C2)CN(c2ncnc(C)n2)C3)CC1 [Example 5M, (R)-6-(4-(2-methoxyphenyl)piperidin-1-yl)-2-(4-methyl-1,3,5-triazin-2-yl)-2-azaspiro[3.4]octane] | 43 | 51 | 0 | > 25000
COc1ccccc1C1CCN([C@@H]2CCC3(C2)CN(c2ccc(Cl)nn2)C3)CC1 [Example 5N, (R)-2-(6-chloropyridazin-3-yl)-6-(4-(2-methoxyphenyl)piperidin-1-yl)-2-azaspiro[3.4]octane] | 50 | 26 | 9 | 11300
COc1ccccc1C1CCN([C@@H]2CCC3(C2)CN(c2cccnn2)C3)CC1 [Example 5O, (R)-6-(4-(2-methoxyphenyl)piperidin-1-yl)-2-(pyridazin-3-yl)-2-azaspiro[3.4]octane] | 39 | 55 | 0 | > 25000
COc1ccc(Cl)cc1C1CCN([C@@H]2CCC3(C2)CN(c2ccnnc2)C3)CC1 [Example 5P, (R)-6-(4-(5-chloro-2-methoxyphenyl)piperidin-1-yl)-2-(pyridazin-4-yl)-2-azaspiro[3.4]octane] | 55 | 43 | 0 | > 25000
c1ccc(C2CCN([C@@H]3CCC4(C3)CN(c3ncncn3)C4)CC2)c(OCC2CCOCC2)c1 [Example 5Q, (R)-6-(4-(2-((tetrahydro-2H-pyran-4-yl)methoxy)phenyl)piperidin-1-yl)-2-(1,3,5-triazin-2-yl)-2-azaspiro[3.4]octane] | 54 | 21 | 0 | > 25000
COc1ccccc1C1CCN([C@@H]2CCC3(C2)CN(c2cc(Cl)nnc2Cl)C3)CC1 [Example 5R, (R)-2-(3,6-dichloropyridazin-4-yl)-6-(4-(2-methoxyphenyl)piperidin-1-yl)-2-azaspiro[3.4]octane] | 51 | 131 | 0 | > 25000
COc1ccccc1C1CCN([C@@H]2CCC3(C2)CN(c2ccnnc2)C3)CC1 [Example 5S, (R)-6-(4-(2-methoxyphenyl)piperidin-1-yl)-2-(pyridazin-4-yl)-2-azaspiro[3.4]octane] | 55 | 129 | 0 | > 25000
